Experimental data as given in patent US11173140B2, “Dosing regimens of PKC activators” (COGNITIVE RESEARCH ENTERPRISES, INC., priority 2015, dated 2021).

Key:
[1] = test system: BDNF; assay: Brain BDNF by ELISA after i.v. bryostatin dosing regimens; type: in vivo, mice; conditions: for BDNF (% of Control): mouse brain, 24 h after last dose
Experimental: FIG. 2 illustrates the increase in brain BDNF content in mice at 24 hours post intravenous administration of bryostatin. The dose of bryostatin administered is reflected by the number above each bar, while the number within each bar indicates the number of consecutive weeks mice receive a single weekly dose of bryostatin. Control mice were injected with vehicle. BDNF content for each test group was calculated as percent of the corresponding control. BDNF was measured in mouse brain by ELISA 24 h after the last dose. (Mean±SEM, n=3 except Cage 24 n=2, 2-tailed t-test).
Mouse studies were performed using bryostatin-i in accordance with the protocol described below. The following metrics were used to evaluate dosing regimens: induction of brain postsynaptic anchoring protein PSD-95, upregulation of BDNF levels in brain, minimal downregulation of PKC-ε levels, and elevation of brain and plasma concentrations of bryostatin. Groups of 2-3 mice were formed and housed in an approved research animal facility. Water was give ad libitum. A first study involved three groups of mice with animals in each group dosed weekly for 1, 2, 3, or 6 consecutive weeks. Each group had its own control group containing the same number of mice. In this study, mice in the first, second and third groups received an intravenous (i.v.) injection of 10 μg/m^2, 15 μg/m^2, and 25 μg/m^2 dose of bryostatin respectively. For each dose, mice in that group received a single injection of bryostatin weekly for predetermined number of consecutive weeks. Following dosing, mice were sacrificed and the blood and brain of each animal was collected for further analysis.
C57B/6 male mice weighing between 19-21 grams were obtained from Charles River and housed in cages, 1 mouse/cage in a vivarium at the Blanchette Rockefeller Neurosciences institute. Animals were allowed access to water ad libitum.
In these studies, bryostatin was administered intravenously (i.v.) by injection into the tail vein of a mouse. Stock solutions of bryostatin were prepared in dimethyl sulfoxide (DMSO). Prior to administration to a mouse, the stock DMSO solution of bryostatin was diluted to a predetermined concentration by dilution with phosphate buffered saline/saline (PBS/saline).
Three different dosing regimens (injection schedules) were compared. The dosing regimens tested were weekly dosing, dosing every other week (alternating weeks), and spaced or intermittent dosing.
The brain, whole blood, and plasma of mice in each dosing group as well as control mice was collected at 1 hour, 24 hours and 7 days after the last injection of bryostatin. PBMC's were isolated from blood and the brain, blood, plasma and PBMC's were frozen immediately using dry ice. Prior to analysis PBMC's were counted by diluting the sample (10 μl aliquot), 10-fold and the PBMC's counted using a Millipore Scepter cell counter. Every group of test animals had its own control group (N=3). Mice in the control group were injected with vehicle at a frequency similar to the dosing regimen and these animals were sacrificed and tested in parallel with mice in the test group.
Each measurement was performed four times (X4). BDNF levels were measured using ELISA and the concentration of protein PSD-95 was measured by Western Blot. High performance liquid chromatography-mass spectral analysis was used to measure the concentration of bryostatin in blood and brain samples based on a standard curve. Total protein concentrations were measured Coomassie Plus (Bradford) Protein Assay kit.
In this study, mice were administered 10 μg/m^2, 15 μg/m^2, and 25 μg/m^2 dose of bryostatin as a single injection once per week for the indicated number of consecutive weeks. […]

[2] = target: T1, PKC-ε (Homo sapiens, UniProt Q02156); assay: Compassionate use study: PKC-ε level in blood; type: in vivo; conditions: advanced AD patient blood, weekly dose of 25 μg/m^2, three consecutive weeks
T1 construct: from tissue; host or cells: blood of a human advanced Alzheimer's disease patient
T1 sequence (Q02156 1-737): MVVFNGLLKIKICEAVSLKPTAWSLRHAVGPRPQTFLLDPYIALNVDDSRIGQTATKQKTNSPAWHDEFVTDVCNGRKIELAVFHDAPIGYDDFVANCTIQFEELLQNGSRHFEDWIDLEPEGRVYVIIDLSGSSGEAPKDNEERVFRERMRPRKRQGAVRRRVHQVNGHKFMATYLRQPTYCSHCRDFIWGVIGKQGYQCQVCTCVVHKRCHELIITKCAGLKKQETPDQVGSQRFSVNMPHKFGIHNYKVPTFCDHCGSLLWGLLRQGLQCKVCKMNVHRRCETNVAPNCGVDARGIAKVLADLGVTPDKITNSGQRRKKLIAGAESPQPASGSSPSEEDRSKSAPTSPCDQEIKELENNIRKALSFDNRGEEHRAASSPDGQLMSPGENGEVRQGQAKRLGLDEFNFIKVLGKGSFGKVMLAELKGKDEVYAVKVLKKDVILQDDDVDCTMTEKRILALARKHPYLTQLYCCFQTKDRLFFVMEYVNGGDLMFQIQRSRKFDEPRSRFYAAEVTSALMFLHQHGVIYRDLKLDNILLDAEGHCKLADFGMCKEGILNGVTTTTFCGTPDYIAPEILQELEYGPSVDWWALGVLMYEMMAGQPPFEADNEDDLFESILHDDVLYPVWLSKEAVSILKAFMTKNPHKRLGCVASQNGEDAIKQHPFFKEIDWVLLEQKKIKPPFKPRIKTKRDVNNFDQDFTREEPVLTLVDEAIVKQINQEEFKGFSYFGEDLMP
Experimental: FIG. 1 illustrates, inter alia, the level of PKCε in the blood of a human subject receiving 25 μg/m^2 of bryostatin as a single weekly dose for three consecutive weeks followed by cessation of dosing for one week and then two additional weeks of dosing at 25 μg/m^2.
FIG. 1 illustrates early results of a compassionate use (CU) study involving human advanced AD patients. […] The administration comprised three consecutive weeks of dosing followed by cessation for one week and then two additional weeks of dosing. Standard psychometric tests were used to measure cognitive functions and behaviors. The study also evaluated the relationship between the level of bryostatin's target, PKC epsilon, in the blood and the cognitive measurements.
Observed improvements included restored speech and word recognition, restored swallowing, lowered or prevented hallucinations, and improved complex motor functions. […] For example, the observed behavioral improvements included restoration of speech and word recognition, restoration of swallowing, disappearance of hallucinations, return of complex motor activity, including swimming, billiards, conversational interactions, and orientation in time and space.

Q: Which results are given for `CCC/C=C/C=C/C(=O)O[C@H]1/C(=C/C(=O)OC)C[C@H]2C[C@H]([C@@H](C)O)OC(=O)C[C@H](O)C[C@@H]3C[C@H](OC(C)=O)C(C)(C)[C@](O)(C[C@@H]4C/C(=C/C(=O)OC)C[C@H](/C=C/C(C)(C)[C@]1(O)O2)O4)O3` [Bryostatin-1]?
A: brain BDNF levels ([1]; mice, 10 μg/m^2 i.v., 3 or 6 consecutive weeks): did not result in elevated levels of brain BDNF; brain BDNF levels ([1]; mice, 15 μg/m^2, three consecutive weeks): some increase; brain BDNF levels ([1]; mice, 25 μg/m^2): maximum increase; brain BDNF ([1]; mice, 25 μg/m^2, 3 weekly doses, 3 weeks no dosing, 3 more weekly doses): remained elevated; BDNF (% of Control) ([1]; cage 4: 25 μg/m^2 i.v. once weekly, 3 weeks): 192.869 % of Control; BDNF (% of Control) ([1]; cage 5: 25 μg/m^2 i.v., 3 on/3 off/3 on (9 weeks)): 149.023 % of Control; BDNF (% of Control) ([1]; cage 6: 10 μg/m^2 i.v. once weekly, 3 weeks): 107.047 % of Control; BDNF (% of Control) ([1]; cage 8: 10 μg/m^2 i.v. once weekly, 6 weeks): 99.137 % of Control; BDNF (% of Control) ([1]; cage 18: 15 μg/m^2 i.v. once weekly, 3 weeks): 110.969 % of Control; BDNF (% of Control) ([1]; cage 22 (regimen not listed in Tables 2/3)): 133.142 % of Control; BDNF (% of Control) ([1]; cage 24: 25 μg/m^2 i.v. once weekly, 2 weeks): 135.095 % of Control; total PKC-ε levels [2]: increased
